This is an account of results in US20250145600A1, “2-((4-((S)-2-(4-CHLORO-2-FLUOROPHENYL)-2-METHYLBENZO[D][1,3]DIOXOL-4-YL)PIPERIDIN-1-YL)METHYL)-1-(((S)-OXETAN-2-YL)METHYL)-1H-IMIDAZOLE DERIVATIVES AS ACTIVATORS OF THE GLP1 RECEPTOR FOR THE TREATMENT OF OBESITY” (Novartis AG, priority 2022, published 2025).

The experiment has as its target human GLP1R (hGLP1R) (Homo sapiens, UniProt P43220). As to the kind of experiment: Human GLP1R β-arrestin recruitment assay (PathHunter). Format: cell-based. Also noted: insert synthesized by GeneArt 93-0164 (CHO-K1-EA parental cells); 93-0491 (pCMV PK vector bundle). The conditions noted are these: CHO-hGLP1R-β-arrestin cells; for EC50: 2 h at 37° C., top concentration 30 μM, read-out: Beta-Arrestin assay EC50 Mean; for Emax: relative to GLP1(7-36), read-out: Beta-Arrestin assay Emax (%). The procedure:
Compounds of formula (I) according to the invention were tested in the following cellular assays that measure the intracellular cAMP concentration, beta-arrestin recruitment and receptor internalization. The cAMP is generated by the activation of GLP1R. The extent to which the GLP1R is internalized into the cell and away from the plasma membrane following activation is also shown in Table 2. EC50 for each assay is defined as the concentration of the compound that leads to half of the maximum response (after baseline correction). Emax is defined as the maximum response observed for the test compound, normalized to the maximum response observed for the endogenous ligand (GLP1(7-36)) to GLP1R.
Human GLP1R β-Arrestin Recruitment Assay
The extent to which agonists recruited β-arrestin was measured using the PathHunter® β-arrestin assay (DiscoverX). This assay measures binding of β-arrestin to the receptor using an enzyme complementation approach. […] When β-arrestin is recruited to the receptor the enzyme becomes active and generates luminescence in the presence of a chemiluminescent substrate (PathHunter® Detection Kit, DiscoverX cat #93-0001). Luminescence can be measured on a relevant detector. CHO-hGLP1R-β-arrestin cells stably overexpressing hGLP1R with Prolink tag and β-arrestin with EA tag were seeded at 20 μL per well in white 384-well poly-D-Lysine coated plates (Greiner Bio One, cat #781945) in Plating Reagent 2 (DiscoverX, cat #93-0563R^2A), and incubated overnight at 37° C., 5% CO2 with humidity. The following day, agonists were prepared at 5 times the final required concentration. To generate triplicate dose response curves, compounds were serially diluted 3-fold in assay buffer (HBSS, 10 mM Hepes and 0.1% BSA), then added to the cell assay plate to a final volume of 25 μL and final top concentrations starting at 30 μM. In the same plate and assay buffer as the tested compounds, were EC100 control wells containing GLP1 (7-36) peptide (Bachem, cat #H-6795) at a final concentration of 1 μM and also EC0 control wells containing no compound. The plate was incubated at 37° C., 5% CO2 with humidity for 2 h after adding the compounds to the cells. Then the detection reagent was prepared (19 parts cell assay buffer, 5 parts substrate reagent 1 and 1 part substrate reagent 2 as per manufacturers recommendations, DiscoverX cat #93-0001), and 12 μL were added per well to the cell assay plate. The plate was incubated for an additional hour in the dark at RT. Luminescence was then measured with an Envision 2104 Multilabel reader with “TRF Light Unit, 337 nm” (Perkin Elmer) using the Ultra-Sensitive protocol setting “384-well US luminescence detector” with the 384-well luminescence aperture, 0.1 sec per well. β-arrestin recruitment was calculated and expressed as percent of the GLP1 (7-36) EC100 control wells: [(sample signal−mean EC0 signal)/(mean EC100 of GLP1 (7-36) signal−mean EC0 signal)]*100 using Microsoft Excel. Curve fitting for EC50 determinations was performed using GraphPad Prism. The 4-parameter logistic model, Hill slope was used: Y=Bottom+(Top−Bottom)/(1+10^((Log EC50−X)*Hill Slope)), where Y is the functional response; X is the compound concentration; bottom is A0 or the minimum value (at 0 dose); top is Ainf or the maximum value (at infinite dose); EC50 is the point of inflection (i.e. the point on the sigmoid shaped curve halfway between A0 and Ainf). The EC50 value was calculated in μM. Emax is the maximal activity detected within the concentration range, derived from the fitted curve relative to GLP1(7-36).
PathHunter CHO-K1-EA parental cells (DiscoverX, cat #93-0164) were plated at a density of 2×10^6 cells per T75 cm^2 flask in 22 mL of complete medium (AssayComplete Cell Culture kit 107, DiscoverX, cat #92-3107G). The following day, the medium was replaced with 22 mL of fresh medium with no antibiotics and cells were transfected as follows. […]
On the technique in general: Recruitment of arrestin is a read-out of receptor activation apart from second messengers.

SMILES strings stand for the structures. Some results are limits rather than exact numbers.

human GLP1R (hGLP1R), sequence (P43220 24-463): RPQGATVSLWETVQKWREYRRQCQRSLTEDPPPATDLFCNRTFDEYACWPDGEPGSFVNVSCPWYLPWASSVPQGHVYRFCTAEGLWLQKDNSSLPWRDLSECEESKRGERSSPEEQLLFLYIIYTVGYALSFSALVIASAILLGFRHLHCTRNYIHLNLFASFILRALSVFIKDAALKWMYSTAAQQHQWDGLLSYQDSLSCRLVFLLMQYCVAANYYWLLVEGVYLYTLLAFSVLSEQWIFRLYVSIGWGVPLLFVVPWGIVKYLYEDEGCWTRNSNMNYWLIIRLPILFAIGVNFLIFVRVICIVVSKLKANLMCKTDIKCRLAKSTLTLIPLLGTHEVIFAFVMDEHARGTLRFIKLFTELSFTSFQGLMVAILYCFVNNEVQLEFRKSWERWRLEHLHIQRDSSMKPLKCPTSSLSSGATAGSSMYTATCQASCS

Consider `CCc1oc(-c2c(C)nc(CN3CCC(c4cccc5c4O[C@@](C)(c4ccc(Cl)cc4F)O5)CC3)n2C[C@@H]2CCO2)nc1C(=O)O` [Compound C-10, 2-(2-((4-((S)-2-(4-chloro-2-fluorophenyl)-2-methylbenzo[d][1,3]dioxol-4-yl)piperidin-1-yl)methyl)-4-methyl-1-(((S)-oxetan-2-yl)methyl)-1H-imidazol-5-yl)-5-ethyloxazole-4-carboxylic acid], for which the EC50 is more than 30 µM and the maximal effect (Emax) stood at 0%.
On to `CCc1nc(CN2CCC(c3cccc4c3O[C@@](C)(c3ccc(Cl)cc3F)O4)CC2)n(C[C@H]2CCO2)c1-c1nc(C(=O)O)co1` [Compound C-7, 2-(2-((4-((S)-2-(4-chloro-2-fluorophenyl)-2-methylbenzo[d][1,3]dioxol-4-yl)piperidin-1-yl)methyl)-4-ethyl-1-(((R)-oxetan-2-yl)methyl)-1H-imidazol-5-yl)oxazole-4-carboxylic acid], for which the EC50 was more than 30 µM and the Emax was 5%.

The term EC50 denotes the concentration at which the effect is half-maximal. In general, Emax refers to the greatest response seen or fitted, relative to the assay's reference.
